Reference: patent publication US20160081936A1 (MURRAY AND POOLE ENTERPRISES LIMITED, priority 2013, published 2016)

Experiments:
[1] = test system: patients with a first episode of recurrent pericarditis; conditions: conventional treatment with aspirin alone, or the same plus colchicine 0.5-1.0 mg/d for 6 months; cited from earlier work
[2] = test system: patients with a first episode of acute pericarditis; conditions: conventional treatment with aspirin, or the same plus colchicine 0.5 to 1.0 mg/day for 3 months; p=0.004; cited from earlier work
[3] = test system: patients with stable coronary disease; conditions: 0.5 mg/day in addition to statins and other standard secondary prevention therapies; Nidorf et al., JACC 2013; cited from earlier work
[4] = test system: patients with stable coronary disease; test: LoDoCo trial: colchicine 0.5 mg/day added to standard secondary prevention therapy; type: in vivo, human
Description: This study is described in PCT/AU2013/001261 and is hereby incorporated in its entirety by reference.
All outcomes were evaluated by an experienced adjudicator blinded to the treatment allocation.
Patients with a history of bypass surgery were only eligible if they had undergone bypass surgery more than 10 years before, or had angiographic evidence of graft failure or had undergone stenting since their bypass surgery. All patients signed informed consent before randomization.
The randomization sequence was computer generated, kept concealed from the investigators at all times and was managed by a research assistant who had no involvement in the evaluation or management of study patients. […] Patients who were intolerant to therapy remained in the study, and were followed in the usual manner and included in the primary intention to treat analysis.
The drug was dispensed by their usual chemist, and if requested, patients were reimbursed for the cost of these scripts. All other treatments were continued as usual.
Patient compliance with treatment and outcome data were collected at routine follow up visits and at the time of any unplanned hospital admission. An acute coronary syndrome (ACS) was defined as either (a) Acute Myocardial Infarction (AMI), as evidenced by acute ischemic chest pain associated with a rise in serum troponin above the upper limit of normal or (b) Unstable Angina (UA), as evidenced by a recent acceleration of the patient's angina unassociated with a rise in serum troponin but associated with angiographic evidence of a change in the patient's coronary anatomy. (Unstable Angina Braunwald classification types IB and IIB). The ACS was characterized as being stent-related if there was evidence of significant in-stent stenosis or acute stent thrombosis. Out of Hospital Cardiac Arrest was defined as either a sudden death as evidenced on the patient's death certificate, or a non-fatal out of hospital cardiac arrest, defined as a recovery from sudden collapse associated with documented asystole, ventricular tachycardia or ventricular fibrillation. Noncardioembolic ischemic stroke was defined as CT or MRI proven ischemic stroke adjudged by the treating neurologist as not being due to atrial fibrillation or intracranial hemorrhage.
The primary efficacy outcome was the composite, ACS, fatal or non-fatal out of hospital cardiac arrest or non-cardio-embolic ischemic stroke. Secondary outcomes were (a) individual components of the primary outcome, and (b) the components of ACS unrelated to stent disease.
The pre-specified study duration was a minimum follow up of two years in all patients. Accordingly the study was closed on May 31, 2012. During May, all living patients were contacted by phone to collect compliance and outcome data from the last date of follow-up.
Summary statistics, including mean and standard deviation were calculated for all baseline characteristics by treatment arm. All time to event outcomes were calculated in days by subtracting the date of randomization from either: (1) the date of event or death; or (2) the trial termination date for those patients not experiencing the defined event. As pre-specified, the primary efficacy analysis was based on the intention-to-treat principle. The intention-to-treat analysis included all randomized subjects and all events during the time from randomization to the trial termination. Trial termination date was fixed as May 31, 2012. A secondary pre-specified on-treatment analysis was also performed, based on patients who were both tolerant and compliant to therapy beyond the first month of randomization.
The time-to-first-event for all outcomes is presented using a Kaplan-Meier plot. […] The secondary outcomes were analysed similarly.

| SMILES | recurrence rate, actuarial rates at 18 months [1] [%] | recurrence rate at 18 months [2] [%] | prevention of cardiovascular events in patients with stable coronary disease [3] | deaths ([4]; colchicine group (282), all of non-cardiac causes, 10 in control group) [patients] | primary outcome, number needed to treat ([4]; intention to treat) | ACS unrelated to stent disease associated with UA, patients ([4]; intention to treat, 0.5 mg/day) [%] | ACS unrelated to stent disease associated with an AMI, patients ([4]; intention to treat, 0.5 mg/day) [%] | patients presenting with an ACS ([4]; intention to treat, 0.5 mg/day) [%] | patients presenting with an ACS unrelated to stent disease ([4]; intention to treat, 0.5 mg/day) [%] | primary outcome (composite of ACS, fatal or non-fatal out of hospital cardiac arrest or non-cardio-embolic ischemic stroke), patients with event ([4]; intention to treat, 0.5 mg/day, median follow up 36 months) [%] | events in patients compliant and tolerant to therapy beyond the first month ([4]; on-treatment analysis, 0.5 mg/day) [%] | out of hospital cardiac arrest and non-cardio-embolic ischemic stroke ([4]; treatment group vs control) |
| --- | --- | --- | --- | --- | --- | --- | --- | --- | --- | --- | --- | --- |
| CC(=O)Oc1ccccc1C(=O)O [aspirin] | 50.6 | 32.3 | – | – | – | – | – | – | – | – | – | – |
| COc1cc2c(c(OC)c1OC)-c1ccc(OC)c(=O)cc1[C@@H](NC(C)=O)CC2 [colchicine, N[5,6,7,9-tetrahydro-1,2,3,10-tetratmethoxy 9-oxobenzo[a]heptalen-7-yl],(S)-acetamide] | 24.0 | 10.7 | appeared effective | 4 | 11 | 1.8 | 1.4 | 4.6 | 3.2 | 5.3 | 4.5 | reduced |
